Measured values as given in publication PMC11355573, “A New Renieramycin T Right-Half Analog as a Small Molecule Degrader of STAT3” (Marine Drugs, 2024).

How the values were obtained:
[1] = system: EMT markers (ZO1, Slug, Snail, N-cadherin, Vimentin) in H460 cells; test: Western blot of EMT markers; type: cell-based, human
Text: (§1) EMT is a biological process that is associated with cancer progression and the spread of cancer cells to other parts of the body. This mechanism facilitates the motility of cancer cells, enhances anoikis resistance, and contributes to poor prognosis due to its high metastatic potential. Given the critical role of EMT in the metastasis processes, we firstly investigated EMT markers. Therefore, to validate that DH_31 inhibits metastasis, H460 cells were selected to elucidate the mechanism because of their enhanced migration and invasion behavior [36]. H460 cells were exposed to the non-toxic concentration range of 0–2.5 µM of DH_31 for 24 h. Subsequently, the evaluation of EMT expression levels was carried out through the application of immunofluorescence assay and Western blotting. We further investigated key hallmarks of EMT, specifically the reduction in the expression levels of epithelial marker (ZO1) and the increase in the expression levels of mesenchymal markers (Slug, Snail, ZEB1, N-cadherin, and Vimentin). […] The expressions of Snail, N-cadherin, and Vimentin were reduced in a concentration-dependent manner. […] Furthermore, the results from the Western blot analysis confirmed the findings from immunofluorescence staining (Figure 3C). […] The protein alterations in response to DH_31 were clarified.
(§2) Western blot analysis was performed to detect and quantify specific proteins in a sample. H460 cells (4.0 × 10^5 cells per well) were seeded in 6 well plates. Following overnight incubation, the cells were treated with different concentrations of DH_31 (0–2.5 μM) for 24 h at 37 °C. After treatment, the cell lysates were isolated using a 1 × RIPA buffer containing a protease inhibitor cocktail for 45 min at 4 °C. The protein content was determined using the BCA protein assay kit. For the Western blot assay, an equal amount of the denatured proteins from cell lysates was separated by electrophoresis on 10 or 12% SDS-PAGE and transferred to 0.2 µm polyvinylidene difluoride (PVDF) membranes (Bio-Rad Laboratories, Hercules, CA, USA). After the membranes were blocked with 5% skim milk, they were then incubated overnight with specific primary antibodies at 4 °C. Subsequently, the membranes were incubated with HRP-conjugated secondary antibodies for 1 h at room temperature. Protein bands were visualized using SuperSignal^TM West Pico PLUS Chemiluminescent Substrate. The protein intensity was analyzed using ImageJ™ software (Image J 1.52a, Rasband, W., National Institutes of Health, Bethesda, MD, USA).

[2] = system: EMT markers (ZO1, ZEB1, Slug, Snail, N-cadherin, Vimentin) in H460 cells; test: Immunofluorescence staining of EMT markers; type: cell-based, human
Text: as §1
(§3) Immunofluorescence staining and confocal microscopy were conducted to visualize the subcellular localization and spatial distribution of specific proteins. H460 cells (1.0 × 10^4 cells per well) were seeded in 96-well plates. Following overnight incubation, the cells were treated with different concentrations of DH_31 (0–2.5 μM) for 24 h at 37 °C. After treatment, the cells were permeabilized with 0.5% Triton-X in PBS for 5 min, followed by the blocking of non-specific proteins with 10% FBS in 0.1% Triton-X PBS for 1 h at room temperature. Subsequently, the cells were exposed to primary antibodies (STAT3, Slug, Snail, Vimentin, N-cadherin, ZO1, and ZEB1) and incubated at 4 °C overnight. The cells were then incubated with Alexa Fluor 488- or 594-conjugated secondary antibodies and Hoechst 33342 for 1 h at room temperature. After washing with PBS, the cells were covered with 50% glycerol. The images were captured by confocal microscopy (Zeiss, Jena, Germany). The fluorescence intensity was measured using ImageJ™ software (Image J 1.52a, Rasband, W., National Institutes of Health, Bethesda, MD, USA).

[3] = biological target: T1, STAT3 (Homo sapiens, UniProt P40763); test: STAT3 immunofluorescence and confocal microscopy; type: cell-based; conditions: H460, 2.5 µM, 24 h (p < 0.001)
T1 construct: endogenous in cells; host or cells: NCI-H460 (ATCC HTB-177)
T1 sequence (P40763 whole entry): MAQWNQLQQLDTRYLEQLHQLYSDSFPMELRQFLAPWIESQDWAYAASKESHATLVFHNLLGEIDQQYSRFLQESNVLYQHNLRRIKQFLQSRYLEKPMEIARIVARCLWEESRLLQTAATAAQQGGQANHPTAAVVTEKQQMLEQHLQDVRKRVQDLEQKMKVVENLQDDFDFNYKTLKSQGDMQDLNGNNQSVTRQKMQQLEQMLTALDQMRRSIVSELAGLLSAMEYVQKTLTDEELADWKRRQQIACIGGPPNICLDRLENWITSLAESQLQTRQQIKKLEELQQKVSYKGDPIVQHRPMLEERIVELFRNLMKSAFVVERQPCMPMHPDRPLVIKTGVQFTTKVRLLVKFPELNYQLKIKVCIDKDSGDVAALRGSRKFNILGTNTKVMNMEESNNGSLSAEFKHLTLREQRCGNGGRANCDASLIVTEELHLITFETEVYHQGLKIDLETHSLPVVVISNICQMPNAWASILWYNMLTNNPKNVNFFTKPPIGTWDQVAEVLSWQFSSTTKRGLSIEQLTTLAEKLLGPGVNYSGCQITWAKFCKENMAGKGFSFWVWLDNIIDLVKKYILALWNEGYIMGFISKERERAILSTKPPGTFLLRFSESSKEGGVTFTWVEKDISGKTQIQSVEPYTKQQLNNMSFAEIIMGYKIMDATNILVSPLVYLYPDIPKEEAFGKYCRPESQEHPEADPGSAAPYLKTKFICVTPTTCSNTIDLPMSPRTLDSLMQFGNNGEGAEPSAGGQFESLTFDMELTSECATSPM
Experimental: To explore whether DH_31 could suppress STAT3, H460 cells were treated with 1 and 2.5 μM of DH_31 for 24 h. Immunofluorescence and confocal microscopy were performed to visualize STAT3 expression.
as §3

[4] = biological target: T1, STAT3; test: STAT3 Western blot; type: cell-based; conditions: H460, 1 μM and 2.5 μM, 24 h (p < 0.05)
Experimental: These findings imply that DH_31 exerts its anticancer effects by modulating the expression and/or accumulation of STAT3.
as §2

COc1c(C)cc2c(c1O)[C@@H]1CN(Cc3ccc4ccccc4c3)[C@@H](C#N)[C@H](C2)N1C [DH_31, (1R,4R,5S)-10-hydroxy-9-methoxy-8,11-dimethyl-3-(naphthalen-2-ylmethyl)-1,2,3,4,5,6-hexahydro-1,5-epiminobenzo[d]azocine-4-carbonitrile]
Snail expression (Western blot) ([1]; H460, 1 µM (p < 0.05) and 2.5 µM (p < 0.01), 24 h): reduced | N-cadherin expression (Western blot) ([1]; H460, 2.5 µM, 24 h (p < 0.05)): reductions | Slug expression (Western blot) ([1]; H460, 2.5 µM, 24 h (p < 0.05)): reductions | Vimentin expression (Western blot) ([1]; H460, 2.5 µM, 24 h (p < 0.05)): reductions | ZO1 level (immunofluorescence) ([2]; H460, 0–2.5 µM, 24 h): slightly increased | Vimentin level (immunofluorescence) ([2]; H460, 1 μM (p < 0.01) and 2.5 μM (p < 0.001), 24 h): significant reduction | N-cadherin level (immunofluorescence) ([2]; H460, 1 μM (p < 0.05) and 2.5 μM (p < 0.001), 24 h): significant reduction | Snail level (immunofluorescence) ([2]; H460, 1 μM and 2.5 μM, 24 h (p < 0.05)): significant reduction | Slug protein level (immunofluorescence) ([2]; H460, 2.5 µM, 24 h (p < 0.05)): significant decrease | ZEB1 protein level (immunofluorescence) ([2]; H460, 2.5 µM, 24 h (p < 0.05)): significant decrease | STAT3 expression (immunofluorescence) [3]: significant reduction | STAT3 protein level (Western blot) [4]: significant decrease
